Measurements published in US20050255111A1, “Use of an inhibitor or antagonist against tissue factor” (priority 2002, published 2005).

Tests used:
[1] = tested on: IBMIR; assay: IBMIR in vitro
[2] = tested on: TF; assay: TF synthesis and secretion in cultured human islets (TF content by EIA); type: cell-based
Experimental: Islets were cultured for 24 h in CMRL-medium containing […] Nicotinamide, which is the standard medium used for islet culture. The medium was thereafter exchanged to CMRL-medium without Nicotinamid. After a baseline period of another 24 h, islets were handpicked for analysis of TF content. Culture was continued for 48 h with medium containing agents known to affect TF expression in monocytes and endothelial cells. These were, L-Arginin, Cyclosporin A, Enalapril, acetylcysteine and nicotinamid. The islets were harvested, the TF content analysed using a commercial EIA kit and the islets tested in the in vitro loop model.
Islets were cultured for 48 h in medium containing 0, 10, 25 and 50 mM Nicotinamid and the intracellular TF concentration assessed, see FIG. 6. The islets were also exposed to fresh human ABO compatible blood in the in vitro loop model. Samples were retrieved after 5, 15, 30 and 60 min and analysed for TAT, see FIG. 7.
Islets were cultured for 48 h in medium containing Enalapril (40 μg/ml), Cyclosporin A (10 μmol/L), L-Aginine (1 mmol/L), Nicotinamide (10 mmol/L) and the intracellular TF concentration assessed. The concentration of Tf is expressed as percentage of the untreated control, see FIG. 8.

Row | Structure (SMILES) | IBMIR in vitro [1] | production of tissue factor in the islets (TF content) ([2]; nicotinamide 0 to 50 mM, 48 h culture) | secretion of TF ([2]; nicotinamide, dose dependent)
1 | N=C(N)c1ccc(CNC(=O)[C@@H]2CCN2C(=O)[C@H](NCC(=O)O)C2CCCCC2)cc1 [Melagatran] | abrogated |  | 
2 | NC(=O)c1cccnc1 [nicotinamide] |  | dose-dependently inhibited | inhibited
